The source of these data is US20240246946A1, “MODULATORS OF TREX1” (Constellation Pharmaceuticals, Inc., priority 2021, published 2024).

For one experiment, the target named is T1, full length human TREX1 (Homo sapiens, UniProt Q9NSU2).
T1 construct: N-terminally His-Tev tagged full length human TREX1; made in house; host or cells: E. coli
T1 sequence (Q9NSU2 1-314): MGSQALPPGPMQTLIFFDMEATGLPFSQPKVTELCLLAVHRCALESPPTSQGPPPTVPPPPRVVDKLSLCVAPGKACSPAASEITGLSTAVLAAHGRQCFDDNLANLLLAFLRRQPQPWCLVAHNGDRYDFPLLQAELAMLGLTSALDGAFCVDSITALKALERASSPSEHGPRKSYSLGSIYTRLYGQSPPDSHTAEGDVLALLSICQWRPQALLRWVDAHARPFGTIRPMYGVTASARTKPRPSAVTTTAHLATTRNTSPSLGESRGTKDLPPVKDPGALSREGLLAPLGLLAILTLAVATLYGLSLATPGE
As to the kind of experiment: hTREX1 Biochemical Assay (fluorescence, dsDNA substrate degradation). As to conditions: biochemical, read-out: hTREX1 IC50. The method in brief:
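Cleavage of 60 nM TEX615/quencher-labelled dsDNA in pH 7.4 Tris buffer with 5 mM MgCl2, 1.0% DMSO, run 18 hours at 25° C, EDTA-quenched; fluorescence read-out.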

For experiment [1], the target named is T2, human TREX2 (residues M44-A279) (Homo sapiens, UniProt Q9BQ50).
T2 construct: human TREX2 (residues M44-A279, expressed in E. coli); made in house; host or cells: E. coli
T2 sequence (Q9BQ50 44-279 isoform Q9BQ50-1): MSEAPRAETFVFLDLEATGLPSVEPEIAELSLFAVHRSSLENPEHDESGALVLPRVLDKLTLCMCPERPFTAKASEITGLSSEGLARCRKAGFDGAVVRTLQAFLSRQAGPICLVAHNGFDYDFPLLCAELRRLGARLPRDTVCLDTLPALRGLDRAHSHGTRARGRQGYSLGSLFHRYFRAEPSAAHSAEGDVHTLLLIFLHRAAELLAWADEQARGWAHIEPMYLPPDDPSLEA
As to the kind of experiment: hTREX2 Biochemical Assay (fluorescence, dsDNA substrate degradation). The conditions noted are these: biochemical selectivity for hTREX1 vs hTREX2. The method in brief:
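N-His-Tev E. coli enzyme (50 pM) pre-incubated with compound 4 h at 25 °C, then 60 nM TEX615/quencher dsDNA added; 18 h at 25 °C, pH 7.4 Tris buffer with 5 mM MgCl2, 1.0% DMSO. EDTA-quenched; fluorescence 570 ex/615 em from liberated fluorophore, 10-point dose-response.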

The next experiment has as its target T3, hTREX1 (Homo sapiens, UniProt Q9NSU2).
T3 construct: host or cells: HCT116 dual cells
T3 sequence (Q9NSU2 1-314): T1 sequence (Q9NSU2 1-314)
As to the kind of experiment: hTREX1 HCT116 Cell Assay (HCT116 dual cells, Lucia luciferase reporter of Type I interferon induction). As to conditions: TREX1i 4 h before pBR322/BstNI transfection, read after 48 h. Type of experiment: cell-based. The method in brief: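 HCT116 dual cells carrying an ISRE-type STAT1/STAT2-driven secreted Lucia luciferase reporter were pretreated with TREX1 inhibitor for 4 h (≤0.1% DMSO), then transfected with pBR322/BstNI DNA (100 ng/well, Lipofectamine LTX). Luciferase in medium read after 48 h at 37 °C.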
(In a reporter assay the amount or activity of a reporter protein is the signal.)

In a further experiment the target is T4, full length mouse TREX1 (Mus musculus, UniProt Q91XB0).
T4 construct: N-terminally His-Tev tagged full length mouse TREX1; made in house; host or cells: E. coli
T4 sequence (Q91XB0 1-314): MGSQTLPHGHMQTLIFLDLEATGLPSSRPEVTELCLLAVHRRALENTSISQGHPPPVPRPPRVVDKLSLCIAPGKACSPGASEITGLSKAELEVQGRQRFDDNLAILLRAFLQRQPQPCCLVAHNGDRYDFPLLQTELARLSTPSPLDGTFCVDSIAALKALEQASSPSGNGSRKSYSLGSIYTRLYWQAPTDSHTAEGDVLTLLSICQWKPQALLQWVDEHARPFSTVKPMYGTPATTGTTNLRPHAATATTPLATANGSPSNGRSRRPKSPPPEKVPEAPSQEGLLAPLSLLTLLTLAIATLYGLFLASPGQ
As to the kind of experiment: mTREX1 Biochemical Assay (fluorescence, dsDNA substrate degradation). As to conditions: biochemical, read-out: mTREX1 IC50. The method in brief:
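Reaction run 18 h at 25° C. with 60 nM TEX615/quencher-labelled dsDNA and 6 pM mouse TREX1 in Tris buffer (pH 7.4, 5 mM MgCl2, 1.0% DMSO), enzyme having sat 4 h with compound across 10 concentrations. EDTA quench; substrate degradation measured as fluorescence increase.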

Turning to `CC(c1nc(C(=O)Nc2cnoc2)c(O)c(=O)n1C)C(c1cnn(CCOC(F)(F)F)c1)c1cc(F)ccc1Cl` (single isomer, unassigned) [Example 98 D1E1], the 50% inhibitory concentration (IC50) at full length human TREX1 is 1 to 10 nM; against hTREX1, > 100 nM; at full length mouse TREX1, 1 to 10 nM. In experiment [1], the “hTREX1 vs hTREX2 selectivity” value was “B (B = 25 to 50-fold selective for hTREX1)”.
Regarding `CCn1cc(C(c2ccccc2Cl)C(C)c2nc(C(=O)Nc3cnoc3)c(O)c(=O)n2C)cn1` (single isomer, unassigned) [Example 85 D1E2], the IC50 at full length human TREX1 is 1 to 10 nM; against hTREX1, > 100 nM; at full length mouse TREX1, > 10 nM. Also, the “hTREX1 vs hTREX2 selectivity” value in experiment [1] is given as “A (A = <25 fold selective for hTREX1)”.
For `CC(c1nc(C(=O)Nc2cnoc2)c(O)c(=O)n1C)C(c1cnn(CCOC(F)(F)F)c1)c1cc(F)ccc1C#N` (single isomer, unassigned) [Example 101 D1E2] the same measures were < 1 nM, 10 to 100 nM, 1 to 10 nM and “C (C = >50 fold selective for hTREX1)”.
In the case of `CC(c1nc(C(=O)Nc2cnoc2)c(O)c(=O)n1C)C(c1ccccc1Cl)n1cc(C(F)(F)F)cn1` (single isomer, unassigned) [Example 139 D1E1], the values for the IC50 on full length human TREX1, against hTREX1 and at full length mouse TREX1 were 1 to 10 nM, > 100 nM and 1 to 10 nM, respectively. Also, the “hTREX1 vs hTREX2 selectivity” value in experiment [1] is listed as “A (A = <25 fold selective for hTREX1)”.
Turning to `Cc1cnn(C)c1C(c1ccccc1C#N)C(C)c1nc(C(=O)Nc2cnoc2)c(O)c(=O)n1C` (single isomer, unassigned) [Example 84 D1E1], the values for the half-maximal inhibitory concentration (IC50) on full length human TREX1, against hTREX1 and on full length mouse TREX1 were < 1 nM, 10 to 100 nM and 1 to 10 nM, respectively. Further, the “hTREX1 vs hTREX2 selectivity” value in experiment [1] is reported as “B (B = 25 to 50-fold selective for hTREX1)”.
Take `CC(c1nc(C(=O)Nc2cnoc2)c(O)c(=O)n1C)C(c1ccccc1Cl)c1cn(C)nc1F` (single isomer, unassigned) [Example 130 D1E1]: the IC50 at full length human TREX1 is < 1 nM; at hTREX1, < 10 nM; at full length mouse TREX1 it was < 1 nM. Besides, the “hTREX1 vs hTREX2 selectivity” value in experiment [1] is given as “B (B = 25 to 50-fold selective for hTREX1)”.
Regarding `Cc1cnc(C(c2cc(F)ccc2Cl)C(C)c2nc(C(=O)Nc3cnoc3)c(O)c(=O)n2C)cn1` (single isomer, unassigned) [Example 117 D2E1], the concentration for half-maximal inhibition (IC50) on full length human TREX1 was 1 to 10 nM; against hTREX1, > 100 nM; at full length mouse TREX1, > 10 nM. Also, in experiment [1], the “hTREX1 vs hTREX2 selectivity” value is reported as “A (A = <25 fold selective for hTREX1)”.
The matching figures for `COCCn1cc(C(c2cc(F)ccc2C#N)C(C)c2nc(C(=O)Nc3cnoc3)c(O)c(=O)n2C)c(C)n1` (single isomer, unassigned) [Example 103 D1E1]: > 10 nM, > 100 nM, > 10 nM and “A (A = <25 fold selective for hTREX1)”.
As to `Cc1cnc(C)c(C(c2cc(F)ccc2Cl)C(C)c2nc(C(=O)Nc3cnoc3)c(O)c(=O)n2C)n1` (single isomer, unassigned) [Example 121 D2E1], the IC50 is > 10 nM at full length human TREX1, > 100 nM at hTREX1 and > 10 nM at full length mouse TREX1. Besides, the “hTREX1 vs hTREX2 selectivity” value in experiment [1] is reported as “B (B = 25 to 50-fold selective for hTREX1)”.
For the molecule `CC(c1nc(C(=O)Nc2cnoc2)c(O)c(=O)n1C)C(c1cnn(C)c1)c1ccc(Cl)cc1C#N` (single isomer, unassigned) [Example 27 D1E1], the IC50 on full length human TREX1 is < 1 nM; against hTREX1, < 10 nM; on full length mouse TREX1 it was < 1 nM. In addition, in experiment [1], the “hTREX1 vs hTREX2 selectivity” value is given as “C (C = >50 fold selective for hTREX1)”.
As for `CCn1cc(C(c2ccccc2Cl)C(C)c2nc(C(=O)Nc3cnoc3)c(O)c(=O)n2C)cn1` (single isomer, unassigned) [Example 85 D2E1], the IC50 is > 10 nM at full length human TREX1, > 100 nM against hTREX1 and > 10 nM at full length mouse TREX1. In experiment [1], the “hTREX1 vs hTREX2 selectivity” value is recorded as “A (A = <25 fold selective for hTREX1)”.
In the case of `CCn1cc(C(c2cc(F)ccc2Cl)C(C)c2nc(C(=O)Nc3cnoc3)c(O)c(=O)n2C)cn1` (single isomer, unassigned) [Example 60 D1E1], the IC50 was < 1 nM on full length human TREX1, 10 to 100 nM on hTREX1 and 1 to 10 nM on full length mouse TREX1. For the same molecule, in experiment [1], the “hTREX1 vs hTREX2 selectivity” value was “B (B = 25 to 50-fold selective for hTREX1)”.
With `CC(c1nc(C(=O)Nc2cnoc2)c(O)c(=O)n1C)C(c1cn[nH]c1)c1ccccc1C#N` (single isomer, unassigned) [Example 12 D1E1], the IC50 is < 1 nM at full length human TREX1, 10 to 100 nM at hTREX1 and 1 to 10 nM on full length mouse TREX1. The “hTREX1 vs hTREX2 selectivity” value in experiment [1] was “C (C = >50 fold selective for hTREX1)”.
Consider `COCCn1cc(C(c2cc(F)ccc2C#N)C(C)c2nc(C(=O)Nc3cnoc3)c(O)c(=O)n2C)c(C)n1` (single isomer, unassigned) [Example 103 D2E1], for which the half-inhibitory concentration (IC50) was 1 to 10 nM on full length human TREX1, > 100 nM against hTREX1 and > 10 nM at full length mouse TREX1. Besides, in experiment [1], the “hTREX1 vs hTREX2 selectivity” value is “A (A = <25 fold selective for hTREX1)”.
In the case of `COCCn1nc(C)c(C(c2cc(F)ccc2C#N)C(C)c2nc(C(=O)Nc3cnoc3)c(O)c(=O)n2C)c1C` (single isomer, unassigned) [Example 110 D1E1], the IC50 is < 1 nM at full length human TREX1, > 100 nM against hTREX1 and 1 to 10 nM at full length mouse TREX1. The “hTREX1 vs hTREX2 selectivity” value in experiment [1] was “C (C = >50 fold selective for hTREX1)”.
The matching figures for `COCCn1cc(C(c2cc(F)ccc2C#N)C(C)c2nc(C(=O)Nc3cnoc3)c(O)c(=O)n2C)c(C)n1` (single isomer, unassigned) [Example 103 D1E2]: < 1 nM, 10 to 100 nM, < 1 nM and “C (C = >50 fold selective for hTREX1)”.
For `CC(c1nc(C(=O)Nc2cnoc2)c(O)c(=O)n1C)C(c1cnn(CCO)c1)c1ccccc1C#N` (single isomer, unassigned) [Example 35 D1E1] the same measures were < 1 nM, > 100 nM, 1 to 10 nM and “C (C = >50 fold selective for hTREX1)”.
As to `Cc1nccc(C(c2ccccc2C#N)C(C)c2nc(C(=O)Nc3cnoc3)c(O)c(=O)n2C)n1` (single isomer, unassigned) [Example 83 D2E1], the IC50 on full length human TREX1 is 1 to 10 nM; on hTREX1, > 100 nM; at full length mouse TREX1, > 10 nM. Besides, the “hTREX1 vs hTREX2 selectivity” value in experiment [1] is reported as “B (B = 25 to 50-fold selective for hTREX1)”.
In the case of `COCCn1ncc(C(c2cc(F)ccc2C#N)C(C)c2nc(C(=O)Nc3cnoc3)c(O)c(=O)n2C)c1C` (single isomer, unassigned) [Example 104 D1E1], the IC50 is 1 to 10 nM at full length human TREX1, > 100 nM against hTREX1 and 1 to 10 nM at full length mouse TREX1. In addition, the “hTREX1 vs hTREX2 selectivity” value in experiment [1] is listed as “B (B = 25 to 50-fold selective for hTREX1)”.
`COC(C)(C)Cn1cc(C(c2cc(F)ccc2Cl)C(C)c2nc(C(=O)Nc3cnoc3)c(O)c(=O)n2C)cn1` (single isomer, unassigned) [Example 93 D1E1]: the IC50 fell in the range of 1 to 10 nM on full length human TREX1, 10 to 100 nM at hTREX1 and 1 to 10 nM at full length mouse TREX1. Further, the “hTREX1 vs hTREX2 selectivity” value in experiment [1] is on record as “B (B = 25 to 50-fold selective for hTREX1)”.

What is called IC50 is the concentration at which inhibition is half-maximal.
